Assay type in all cases: cell-based
One test relates to IL-6. Nature of the test: Gene expression analysis (qPCR) of IL-6. Conditions: Fig. 5C; 72 hours, BIRB796 2.5 µM with or without oleuropein; 55 Grays; normalized against HPRT1. An excerpt:
(§1) Skin tissue biopsies from female patients of A Coruña University Hospital Complex - A Coruña Integrated Management Services (Complejo Hospitalario Universitario de A Coruña - Xerencia Xestión Integrada A Coruña (CHUAC-XXIAC)) were obtained from operations for the surgical removal of a benign pathology (fibroadenoma, samples consisting of untreated healthy skin) and from oncology interventions (samples consisting of skin subjected to radiotherapy and chemotherapy). Signed informed consent was received from each of the patients (2015/029, C.0003333, 2016/077). To isolate primary fibroblast from these samples, hypodermal fat was removed with the aid of a scalpel, and the epidermis was segmented into fragments of about 1x1 cm (explants). Lines were made with a scalpel on a 100 cm^2 adherent Petri dish creating a grid, and each of the explants was placed in the resulting intersections with the epidermis facing up and the dermis in contact with the dish. […] The working concentrations of said compounds were determined by means of literature review and cell viability assays (MTT). […]
(§2) For RNA extraction from the different cell types, TRI Reagent (MRC) was used following the manufacturer's instructions. […] The amount and quality of the obtained RNA was quantified in Nanodrop ND-1000. […]
On the technique in general: Real-time PCR tracks product formation cycle by cycle.

A further test has as its system MMP-3. The test is described as follows: Gene expression analysis (qPCR) of MMP-3. To be noted: Fig. 5B; 72 hours, BIRB796 2.5 µM; 55 Grays; normalized against HPRT1, compared to non-radiated healthy fibroblast control.
Source text: as §1, §2

Test [1] concerns p21. The test is described as follows: Gene expression analysis (qPCR) of p21. To be noted: Fig. 8; 72 hours; oleuropein 10 µM, BIRB796 2.5 µM; 55 Grays; normalized against HPRT1.
Source text: as §1, §2

The test system of test [2] is p21. The test is described as follows: Western blot of p21 in radiated fibroblasts. Conditions: Fig. 7; post-radiation treatment for 72 hours; oleuropein 10 µM, BIRB796 2.5 µM; 55 Grays; relative to tubulin.
Source text: as §1
On the technique in general: Immunoblotting shows a protein as a band on a membrane.

A further test deals with IL-1β. Nature of the test: Gene expression analysis (qPCR) of IL-1β. To be noted: Fig. 5C; 72 hours, BIRB796 2.5 µM with or without oleuropein; 55 Grays; normalized against HPRT1.
Source text: as §1, §2

For another test, the system named is p53. Nature of the test: Western blot of p53 in radiated fibroblasts. To be noted: Fig. 7; post-radiation treatment for 72 hours; oleuropein 10 µM, BIRB796 2.5 µM; 55 Grays; relative to tubulin.
Source text: as §1

As to `Cc1ccc(-n2nc(C(C)(C)C)cc2NC(=O)Nc2ccc(OCCN3CCOCC3)c3ccccc23)cc1` [BIRB796, doramapimod], in the test with IL-6, the “IL-6 mRNA levels” value is on record as “decreases synthesis of the inflammatory component”. Further, the “MMP-3 mRNA levels” value in the test with MMP-3 is reported as “protects against the synthesis of SASP components such as MMP-3”. For the same molecule, in the test with p21 [1], the “p21 mRNA level” value is “reduces the gene expression of senescence factor p21”. In the test on p21 [2], the “protein levels of p21” value is listed as “effectively reduced protein levels of both factors”. Further, the “IL-1β mRNA levels” value in the test on IL-1β is listed as “decreases synthesis of the inflammatory component”. In addition, the “protein levels of p53” value in the test with p53 was “effectively reduced protein levels of both factors”.

Source of the values: patent EP3960748A1, “COMPOSITION FOR THE TREATMENT OF THE SIDE EFFECTS OF RADIOTHERAPY AND/OR CHEMOTHERAPY” (Fundación Profesor Novoa Santos, priority 2019, dated 2020).
